Measured values taken from patent US8026218B2, “Bifunctional analgesic compounds for opioid receptor agonists and neurokinin-1 receptor antagonists” (The University of Arizona, priority 2006, dated 2011).
Where two headings read alike, the source gives them in different places. Peptide text beside a SMILES is read from it.

How the values were obtained:
rat NK1 (rNK1) receptor = molecular target: T1, rat NK1 (rNK1) receptor (Rattus norvegicus, UniProt P14600); test: Radioligand competition binding, [3H]substance P, rNK1/CHO membranes; details: Ki (nM) rNK1, Table 33
T1 construct: expressed in transfected cells; host or cells: CHO (rNK-1/CHO cell line from Dr. James Krause)

δ opioid receptors (MVD) = molecular target: T2, δ opioid receptors (MVD) (Mus musculus, UniProt P32300); test: Mouse isolated vas deferens (MVD) assay, opioid agonist
T2 construct: from tissue; host or cells: mouse (ICR) isolated vas deferens

μ opioid receptors (GPI) = test: Guinea pig isolated ileum (GPI) assay, opioid agonist;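 also: inhibition of electrically evoked contractions (0.1 Hz, 0.4 msec, supramaximal voltage) in organ baths at 37 °C, contraction height 3 min after each cumulative dose versus the 1 min before dosing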
Protocol: Guinea Pig Isolated Ileum Assay. […] These tissues were tied to gold chains with suture silk and mounted between platinum wire electrodes in 20 mL organ baths at a tension of 1 g and bathed in oxygenated (95:5 O2:CO2) Kreb's bicarbonate buffer at 37° C. and stimulated electrically (0.1 Hz, 0.4 msec duration) at supramaximal voltage. Following an equilibration period, compounds were added cumulatively to the bath in volumes of 14-60 μL until maximum inhibition was reached. A baseline PL-017 was constructed to determine tissue integrity and allow calculation of antagonist activity before opioid analog testing began.
For opioid data analysis, percentage inhibition was calculated using the average tissue contraction height for 1 min preceding the addition of the agonist divided by the contraction height 3 min after exposure to the dose of agonist. […] IC50 and Emax estimates were determined by computerized nonlinear least-squares analysis (the pharmacological statistics package FlashCalc: Dr. Michael Ossipov, University of Arizona, Tucson, Ariz.). […] A50 values represent the mean of not less than 4 tissues. A50 and Emax estimates were determined by computerized nonlinear least-squares analysis (FlashCalc).

[1] = molecular target: T3, Substance P receptors (guinea pig NK1) (Cavia porcellus, UniProt P30547); test: Guinea pig isolated ileum (GPI) assay with substance P stimulation in presence of 1 μM naloxone
T3 construct: from tissue; host or cells: guinea pig (Hartley) ileum LMMP, 1 μM naloxone present

[2] = molecular target: T4, human δ opioid receptors (hDOR) (Homo sapiens, UniProt P41143); test: [35S]GTP-γ-S binding assay, hDOR; format: biochemical; details: for EC50: read-out: GTP hDOR EC50
T4 construct: expressed in transfected cells; host or cells: HN9.10 neuroblastoma cell line, pCDNA3, neomycin-selected clones

[3] = molecular target: T5, rat μ opioid receptors (rMOR) (Rattus norvegicus, UniProt P33535); test: biochemical; format: biochemical
T5 construct: expressed in transfected cells; host or cells: HN9.10 neuroblastoma cell line, pCDNA3, neomycin-selected clones

[4] = molecular target: T6, human NK1 receptor (hNK1) (Homo sapiens, UniProt P25103); test: Radioligand competition binding, [3H]-Substance P, hNK1
T6 construct: expressed in transfected cells

[5] = Table 36, read-out: GPI μ-agonist IC50
[6] = Table 35, read-out: GPI/LMMP μ-agonist IC50
[7] = Table 39, read-out: GTP binding hDOR Emax
[8] = Table 39, read-out: GTP binding rMOR Emax
[9] = Table 39, read-out: GPI/LMMP opioid(mu) agonist (IC50; nM)
[10] = Table 32, read-out: GTP hDOR EMax
[11] = Table 32, read-out: GTP rMOR EC50
[12] = Table 32, read-out: GTP rMOR EMax
[13] = GPI/LMMP SP antagonist Ke (nM), Table 35

T3 sequence (P30547 whole entry): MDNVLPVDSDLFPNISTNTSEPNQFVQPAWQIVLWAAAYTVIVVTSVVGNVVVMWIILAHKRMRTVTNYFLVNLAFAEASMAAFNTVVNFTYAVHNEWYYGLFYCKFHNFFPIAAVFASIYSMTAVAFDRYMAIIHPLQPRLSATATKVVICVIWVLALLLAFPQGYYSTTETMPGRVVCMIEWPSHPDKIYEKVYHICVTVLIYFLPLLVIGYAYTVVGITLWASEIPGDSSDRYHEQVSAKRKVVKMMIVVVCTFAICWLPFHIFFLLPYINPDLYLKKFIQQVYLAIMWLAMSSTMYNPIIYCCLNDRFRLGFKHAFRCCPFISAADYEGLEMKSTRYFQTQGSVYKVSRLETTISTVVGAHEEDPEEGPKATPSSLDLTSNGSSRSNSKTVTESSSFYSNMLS
T5 sequence (P33535 whole entry): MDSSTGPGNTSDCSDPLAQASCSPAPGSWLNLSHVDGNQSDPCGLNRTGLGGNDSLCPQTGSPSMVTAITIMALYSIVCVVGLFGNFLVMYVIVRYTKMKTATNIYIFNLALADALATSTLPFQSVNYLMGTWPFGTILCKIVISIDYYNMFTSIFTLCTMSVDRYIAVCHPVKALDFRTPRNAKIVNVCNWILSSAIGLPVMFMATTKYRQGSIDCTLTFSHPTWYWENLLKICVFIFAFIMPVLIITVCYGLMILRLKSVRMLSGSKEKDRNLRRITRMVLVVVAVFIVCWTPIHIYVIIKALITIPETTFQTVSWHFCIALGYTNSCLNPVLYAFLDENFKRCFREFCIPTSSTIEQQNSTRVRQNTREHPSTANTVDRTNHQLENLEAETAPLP
T2 sequence (P32300 whole entry): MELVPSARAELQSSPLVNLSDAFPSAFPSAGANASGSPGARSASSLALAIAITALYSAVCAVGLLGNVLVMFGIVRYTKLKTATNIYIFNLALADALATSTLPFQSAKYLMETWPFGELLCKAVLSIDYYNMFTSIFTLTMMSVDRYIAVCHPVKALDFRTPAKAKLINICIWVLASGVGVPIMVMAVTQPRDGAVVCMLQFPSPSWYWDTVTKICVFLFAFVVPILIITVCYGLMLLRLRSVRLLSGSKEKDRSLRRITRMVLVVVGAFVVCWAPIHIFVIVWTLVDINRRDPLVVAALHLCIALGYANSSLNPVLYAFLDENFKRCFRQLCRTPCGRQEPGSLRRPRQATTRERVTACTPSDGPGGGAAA
T4 sequence (P41143 whole entry): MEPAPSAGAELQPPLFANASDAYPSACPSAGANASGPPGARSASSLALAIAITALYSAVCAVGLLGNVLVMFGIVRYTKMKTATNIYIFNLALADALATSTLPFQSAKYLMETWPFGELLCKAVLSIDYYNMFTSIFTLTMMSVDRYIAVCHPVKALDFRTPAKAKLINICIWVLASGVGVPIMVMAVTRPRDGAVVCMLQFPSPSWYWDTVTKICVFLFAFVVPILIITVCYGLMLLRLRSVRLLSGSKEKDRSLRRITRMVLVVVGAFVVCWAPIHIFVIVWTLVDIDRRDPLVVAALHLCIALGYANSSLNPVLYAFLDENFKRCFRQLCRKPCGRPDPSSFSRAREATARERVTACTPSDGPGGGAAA
T6 sequence (P25103 whole entry): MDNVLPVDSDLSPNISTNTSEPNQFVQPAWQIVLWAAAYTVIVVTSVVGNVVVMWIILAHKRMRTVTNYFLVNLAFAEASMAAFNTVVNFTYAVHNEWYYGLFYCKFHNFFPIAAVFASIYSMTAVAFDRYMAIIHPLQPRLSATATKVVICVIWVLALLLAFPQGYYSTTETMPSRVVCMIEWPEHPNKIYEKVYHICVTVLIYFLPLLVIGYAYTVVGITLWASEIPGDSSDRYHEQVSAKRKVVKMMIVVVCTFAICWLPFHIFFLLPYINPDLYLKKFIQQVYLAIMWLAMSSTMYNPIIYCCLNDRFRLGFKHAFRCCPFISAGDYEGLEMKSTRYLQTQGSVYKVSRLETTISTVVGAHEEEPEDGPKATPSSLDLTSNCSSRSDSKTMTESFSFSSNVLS
T1 sequence (P14600 whole entry): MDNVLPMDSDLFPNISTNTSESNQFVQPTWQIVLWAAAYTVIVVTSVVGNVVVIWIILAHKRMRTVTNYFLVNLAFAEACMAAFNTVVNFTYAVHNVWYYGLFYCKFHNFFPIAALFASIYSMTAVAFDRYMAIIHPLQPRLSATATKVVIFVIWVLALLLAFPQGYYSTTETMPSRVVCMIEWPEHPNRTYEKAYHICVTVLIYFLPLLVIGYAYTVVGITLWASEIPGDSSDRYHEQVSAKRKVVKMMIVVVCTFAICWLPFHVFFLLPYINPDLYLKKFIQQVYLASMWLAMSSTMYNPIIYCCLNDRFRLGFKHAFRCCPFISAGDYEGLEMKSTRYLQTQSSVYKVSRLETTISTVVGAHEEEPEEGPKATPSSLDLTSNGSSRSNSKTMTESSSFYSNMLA

C[C@@H](NC(=O)[C@@H](N)Cc1ccc(O)cc1)C(=O)NCC(=O)N[C@@H](Cc1c[nH]c2ccccc12)C(=O)OCc1cc(C(F)(F)F)cc(C(F)(F)F)c1 [NP44] (HELM PEPTIDE1{Y.[dA].G.W.[FC(F)(F)c1cc(CO[*:1])cc(C(F)(F)F)c1]}$$$$V2.0; N-terminus assumed)
Ki (rat NK1 (rNK1) receptor): 3.4 nM | IC50 (δ opioid receptors (MVD)): 303 nM | IC50 (μ opioid receptors (GPI); [5]): 844 nM | Kb ([1]; GPI SP-antagonist Ke (nM), Table 36): 5 nM

C[C@@H](NC(=O)[C@@H](N)Cc1ccc(O)cc1)C(=O)NCC(=O)N[C@@H](Cc1ccccc1)C(=O)NCCC(=O)N[C@@H](Cc1c[nH]c2ccccc12)C(=O)OCc1cc(C(F)(F)F)cc(C(F)(F)F)c1 [NP32] (HELM PEPTIDE1{Y.[dA].G.F.[bAla].W.[FC(F)(F)c1cc(CO[*:1])cc(C(F)(F)F)c1]}$$$$V2.0; N-terminus assumed)
IC50 (μ opioid receptors (GPI); [6]): 435 nM

COc1cc(COC(=O)[C@H](Cc2c[nH]c3ccccc23)NC(=O)[C@H](CC(C)C)NC(=O)[C@@H]2CCCN2C(=O)[C@H](CCSC)NC(=O)[C@H](Cc2ccccc2)NC(=O)CNC(=O)[C@@H](C)NC(=O)[C@@H](N)Cc2ccc(O)cc2)cc(OC)c1 [TY030]
Emax [2, 7]: 61% | Emax [3, 8]: 59% | IC50 (μ opioid receptors (GPI); [9]): 31 nM

Cc1cc(O)cc(C)c1C[C@H](N)C(=O)N[C@H](C)C(=O)N[C@@H](Cc1c[nH]c2ccccc12)C(=O)OCc1cc(C(F)(F)F)cc(C(F)(F)F)c1 [NP48]
IC50 (δ opioid receptors (MVD)): 408 nM | GPI μ-agonist, % at 1 μM (μ opioid receptors (GPI); Table 36, at 1 μM): 20.4% at 1 μM

C[C@@H](NC(=O)[C@@H](N)Cc1ccc(O)cc1)C(=O)NCC(=O)N[C@@H](Cc1ccccc1)C(=O)NCC(=O)N[C@@H](Cc1c[nH]c2ccccc12)C(=O)OCc1cc(C(F)(F)F)cc(C(F)(F)F)c1 [NP30] (HELM PEPTIDE1{Y.[dA].G.F.G.W.[FC(F)(F)c1cc(CO[*:1])cc(C(F)(F)F)c1]}$$$$V2.0; N-terminus assumed)
IC50 (μ opioid receptors (GPI); [6]): 25.7 nM

C[C@@H](NC(=O)[C@H](Cc1ccccc1)NC(=O)CNC(=O)[C@@H](C)NC(=O)[C@@H](N)Cc1ccc(O)cc1)C(=O)N[C@@H](Cc1c[nH]c2ccccc12)C(=O)OCc1cc(C(F)(F)F)cc(C(F)(F)F)c1 [NP40] (HELM PEPTIDE1{Y.[dA].G.F.[dA].W.[FC(F)(F)c1cc(CO[*:1])cc(C(F)(F)F)c1]}$$$$V2.0; N-terminus assumed)
EC50 ([2]; Table 32): 71.3 nM | Emax [2, 10]: 89% | EC50 [3, 11]: 93.1 nM | Emax [3, 12]: 19% | IC50 (δ opioid receptors (MVD)): 58 nM | IC50 (μ opioid receptors (GPI); [6]): 528 nM | Kb [1, 13]: 608 nM

CSCC[C@H](N)C(=O)N1CCC[C@H]1C(=O)N[C@@H](CC(C)C)C(=O)N[C@@H](Cc1c[nH]c2ccccc12)C(=O)NCc1cc(C(F)(F)F)cc(C(F)(F)F)c1 [TY051] (HELM PEPTIDE1{M.P.L.W.[FC(F)(F)c1cc(CN[*:1])cc(C(F)(F)F)c1]}$$$$V2.0; N-terminus assumed)
GTP binding rMOR EC50 ([3]; Table 39): no response

CSCC[C@H](NC(=O)[C@H](Cc1ccccc1)NC(=O)CNC(=O)[C@@H](C)NC(=O)[C@@H](N)Cc1ccc(O)cc1)C(=O)N1CCC[C@@H]1C(=O)N[C@@H](CC(C)C)C(=O)N[C@@H](Cc1c[nH]c2ccccc12)C(=O)OCc1cc(C(F)(F)F)cc(C(F)(F)F)c1 [TY024]
Emax ([2]; read-out: GTP binding hDOR Emax): 21% | Emax ([3]; read-out: GTP binding rMOR Emax): 28%

CC(C)C[C@H](NC(=O)[C@@H]1CCCN1C(=O)[C@H](Cc1ccccc1)NC(=O)[C@H](Cc1ccccc1)NC(=O)CNC(=O)[C@@H](C)NC(=O)[C@@H](N)Cc1ccc(O)cc1)C(=O)N[C@@H](Cc1c[nH]c2ccccc12)C(=O)N(C)Cc1cc(C(F)(F)F)cc(C(F)(F)F)c1 [TY017] (HELM PEPTIDE1{Y.[dA].G.F.F.P.L.W.[CN(Cc1cc(C(F)(F)F)cc(C(F)(F)F)c1)[*:1]]}$$$$V2.0; N-terminus assumed)
Emax [2, 7]: 125% | Emax [3, 8]: 62.4%

C[C@@H](NC(=O)[C@@H](N)Cc1ccc(O)cc1)C(=O)NCC(=O)N[C@@H](Cc1ccccc1)C(=O)N[C@@H](Cc1c[nH]c2ccccc12)C(=O)OCc1cc(C(F)(F)F)cc(C(F)(F)F)c1 [NP36] (HELM PEPTIDE1{Y.[dA].G.F.W.[FC(F)(F)c1cc(CO[*:1])cc(C(F)(F)F)c1]}$$$$V2.0; N-terminus assumed)
IC50 (μ opioid receptors (GPI); [5]): 523 nM

CCCC[C@H](NC(=O)[C@H](Cc1ccccc1)NC(=O)CNC(=O)[C@@H](C)NC(=O)[C@@H](N)Cc1c(C)cc(O)cc1C)C(=O)N1CCC[C@H]1C(=O)N[C@@H](CC(C)C)C(=O)N[C@@H](Cc1c[nH]c2ccccc12)C(=O)NCc1cc(C(F)(F)F)cc(C(F)(F)F)c1 [TY050]
Emax [3, 8]: 45%

CSCC[C@H](NC(=O)[C@H](Cc1ccccc1)NC(=O)CNC(=O)[C@@H](C)NC(=O)[C@@H](N)Cc1ccc(O)cc1)C(=O)NC(C)(C)C(=O)N[C@@H](CC(C)C)C(=O)N[C@@H](Cc1c[nH]c2ccccc12)C(=O)OCc1cc(C(F)(F)F)cc(C(F)(F)F)c1 [TY022]
Emax [3, 8]: 32%

CSCC[C@H](NC(=O)[C@H](Cc1ccccc1)NC(=O)CNC(=O)[C@@H](C)NC(=O)[C@@H](N)Cc1ccc(O)cc1)C(=O)N[C@H](CC(C)C)C(=O)N[C@@H](CC(C)C)C(=O)N[C@@H](Cc1c[nH]c2ccccc12)C(=O)OCc1cc(C(F)(F)F)cc(C(F)(F)F)c1 [TY021] (HELM PEPTIDE1{Y.[dA].G.F.M.[dL].L.W.[FC(F)(F)c1cc(CO[*:1])cc(C(F)(F)F)c1]}$$$$V2.0)
Emax [2, 7]: 41.1% | Emax [3, 8]: 51.4%

CSCC[C@H](NC(=O)[C@H](Cc1ccccc1)NC(=O)CNC(=O)[C@@H](C)NC(=O)[C@@H](N)Cc1ccc(O)cc1)C(=O)N[C@@H](Cc1c[nH]c2ccccc12)C(=O)OCc1cc(C(F)(F)F)cc(C(F)(F)F)c1 [NP38] (HELM PEPTIDE1{Y.[dA].G.F.M.W.[FC(F)(F)c1cc(CO[*:1])cc(C(F)(F)F)c1]}$$$$V2.0; N-terminus assumed)
EC50 ([2]; Table 32): 1.1 nM | Emax [2, 10]: 36% | EC50 [3, 11]: 0.8 nM | Emax [3, 12]: 51% | IC50 (δ opioid receptors (MVD)): 9.07 nM | IC50 (μ opioid receptors (GPI); [6]): 393 nM | Kb [1, 13]: 2 nM

CC(C)C[C@H](NC(=O)[C@@H]1CCCN1C(=O)[C@H](Cc1ccccc1)NC(=O)[C@H](Cc1ccccc1)NC(=O)CNC(=O)[C@@H](C)NC(=O)[C@@H](N)Cc1ccc(O)cc1)C(=O)N[C@@H](Cc1c[nH]c2ccccc12)C(=O)NCc1cc(C(F)(F)F)cc(C(F)(F)F)c1 [TY015] (HELM PEPTIDE1{Y.[dA].G.F.F.P.L.W.[FC(F)(F)c1cc(CN[*:1])cc(C(F)(F)F)c1]}$$$$V2.0; N-terminus assumed)
Emax [2, 7]: 142% | EC50 ([3]; Table 39, read-out: GTP binding rMOR EC50): 176 nM | Emax [3, 8]: 64.4%

C[C@@H](NC(=O)[C@@H](N)Cc1ccc(O)cc1)C(=O)NCC(=O)N[C@@H](Cc1ccc(Cl)cc1)C(=O)NCC(=O)N[C@@H](Cc1c[nH]c2ccccc12)C(=O)OCc1cc(C(F)(F)F)cc(C(F)(F)F)c1 [NP46] (HELM PEPTIDE1{Y.[dA].G.[O=C([C@H](Cc1ccc(Cl)cc1)N[*:1])[*:2]].G.W.[FC(F)(F)c1cc(CO[*:1])cc(C(F)(F)F)c1]}$$$$V2.0; N-terminus assumed)
IC50 (μ opioid receptors (GPI); Table 37, read-out: GPI μ-agonist IC50): 124 nM

CSCC[C@H](NC(=O)[C@H](Cc1ccccc1)NC(=O)CNC(=O)[C@@H](C)NC(=O)[C@@H](N)Cc1ccc(O)cc1)C(=O)N1CCC[C@H]1C(=O)N[C@@H](CC(C)C)C(=O)N[C@@H](Cc1c[nH]c2ccccc12)C(=O)N(C)Cc1cc(C(F)(F)F)cc(C(F)(F)F)c1 [TY028]
Emax [2, 7]: 59% | Emax [3, 8]: 52% | IC50 (δ opioid receptors (MVD)): 11.2 nM | IC50 (μ opioid receptors (GPI); [9]): 971 nM | Kb ([1]; GPI/LMMP SP antagonist (Ke; nM), Table 39): 4.6 nM

CCCC[C@H](NC(=O)[C@H](Cc1ccccc1)NC(=O)CNC(=O)[C@@H](C)NC(=O)[C@@H](N)Cc1c(C)cc(O)cc1C)C(=O)N1CCC[C@H]1C(=O)N[C@@H](CC(C)C)C(=O)N[C@@H](Cc1c[nH]c2ccccc12)C(=O)NCc1cccc(C(F)(F)F)c1 [TY053]
Ki [4]: 1.04 nM | Emax [3, 8]: 20%

CSCC[C@H](NC(=O)[C@H](Cc1ccccc1)NC(=O)CNC(=O)[C@@H](CS)NC(=O)[C@@H](N)Cc1ccc(O)cc1)C(=O)N1CCC[C@H]1C(=O)N[C@@H](CC(C)C)C(=O)N[C@@H](Cc1c[nH]c2ccccc12)C(=O)OCc1cc(C(F)(F)F)cc(C(F)(F)F)c1 [TY031] (HELM PEPTIDE1{Y.[dC].G.F.M.P.L.W.[FC(F)(F)c1cc(CO[*:1])cc(C(F)(F)F)c1]}$$$$V2.0; N-terminus assumed)
IC50 (δ opioid receptors (MVD)): 235 nM
